Patent publication US5364869A, “Heterocycle-substituted benzyaminopyridine angiotensin II receptor antagonists” (Abbott Laboratories, priority 1993, dated 1994)

Experiments:
angiotensin II receptor = molecular target: T1, angiotensin II receptor (Oryctolagus cuniculus, UniProt P34976); assay: Antagonism of contraction of rabbit aorta (angiotensin II functional assay, isolated rabbit aorta); set-up: species or system rabbit (female New Zealand White); details: Schild analysis; for Kb: pA2 = negative logarithm of [A]2
T1 construct: Main abdominal aortas were removed and placed in Krebs-Henseleit buffer; from tissue; host or cells: abdominal aorta rings of female New Zealand White rabbits
T1 sequence (P34976 1-359): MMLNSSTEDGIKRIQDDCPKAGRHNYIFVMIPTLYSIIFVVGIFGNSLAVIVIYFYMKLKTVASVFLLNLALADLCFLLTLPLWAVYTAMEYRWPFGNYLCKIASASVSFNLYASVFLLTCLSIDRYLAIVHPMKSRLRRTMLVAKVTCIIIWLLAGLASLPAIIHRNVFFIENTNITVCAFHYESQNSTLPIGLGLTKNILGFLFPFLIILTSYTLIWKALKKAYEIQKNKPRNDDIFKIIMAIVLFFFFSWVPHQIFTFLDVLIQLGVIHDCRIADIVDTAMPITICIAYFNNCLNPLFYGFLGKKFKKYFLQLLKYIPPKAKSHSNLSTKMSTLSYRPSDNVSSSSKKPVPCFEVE
Source text: ANGIOTENSIN II FUNCTIONAL ASSAY
Antagonism of Contraction of Rabbit Aorta
The protocol reported by A. T. Chiu and P. Timmermans (P. C. Wong, et al. Hypertension, 13, 489-497 (1989)) was followed with a few modifications. Female New Zealand White rabbits weighing 2-5 kg were sedated with carbon dioxide and then sacrificed. Main abdominal aortas were removed and placed in Krebs-Henseleit buffer at room temperature.
The tissues were cleaned of extraneous connective tissue, cut into 3 mm rings, and suspended within a 10 mL tissue bath. All dilutions of peptide preparations were made with 0.3% aqueous BSA. The tissues were primed with 55 mM potassium chloride. Tissues were pre-loaded with 1 g of tension. Tension was recorded on a model 7 Grass polygraph using FT03 transducers. At the end of the equilibrium period, a control cumulative concentration-contractile response curve for angiotensin II (A II: 1×10^-10 -10^-8 M) was obtained. The tissue was washed several times until the baseline was reached. Forty five minutes later, test compound (antagonist) was added and the tissue was incubated for 30 minutes. The concentration-response curve for A II was then repeated in the presence of the test compound. One dose of antagonist was tested per tissue only. For single dose shift experiments a dose of 1 mM of test compound was used, for a full pA2 experiment multiple doses were used depending upon the potency of the antagonist.
All responses to the control agonist were calculated as a percentage of the maximum response. These points in duplicate were plotted and analyzed according to standard Schild analysis (H. O. Schild, British J Pharmacology and Chemotherapy, 2, 189-206 (1947). The pA2 values calculated for the compounds of the invention are shown in Table 1. The pA2 value is the negative logarithm of the [A]2 value. [A]2 is the concentration of antagonist which necessitates doubling the agonist concentration in order to achieve the agonist effect which was measured in the absence of antagonist.
The pA2 value, therefore is a measure of the effectiveness of the compound as an antagonist.

[1] = system: hypertension and congestive heart failure; details: background; cited from earlier work
angiotensin II = details: background; cited from earlier work
[2] = background; cited from earlier work
[3] = after intravenous administration; due to angiotensin receptor agonist activity; cited from earlier work

CCCN(Cc1ccc(OC(C(=O)O)c2ccccc2)cc1)c1nc(C)ncc1C(=O)O (stereo not drawn) [Example 1, 4-[N-4-(1-Carboxy-1-phenylmethoxy)benzyl-N-propyl]amino-2-methylpyrimidine-5-carboxylic acid]
Kb (angiotensin II receptor): 589 nM

CCCN(Cc1ccc2c(Br)c(-c3ccccc3-c3nn[nH]n3)sc2c1)c1ncccc1C(=O)O [Example 3]
pA2 (angiotensin II receptor; pA2 = negative logarithm of [A]2, 30 min): 7.53

CCCN(Cc1ccc(-n2cc(Br)cc2-c2nn[nH]n2)cc1)c1ncccc1C(=O)O [Example 4H, 2-{N-Propyl-N-[(1-[3-bromo-5-(1H-tetrazol-5-yl)pyrrole-1-yl]phenyl-4-yl)methyl]amino}pyridine-3-carboxylic acid]
Kb (angiotensin II receptor): 0.132 nM

C[C@H](CS)C(=O)N1CCC[C@H]1C(=O)O [captopril]
clinical efficacy in treating hypertension and congestive heart failure (in words) [1]: have clinical efficacy in treating hypertension and congestive heart failure

CCOC(=O)[C@H](CCc1ccccc1)N[C@@H](C)C(=O)N1CCC[C@H]1C(=O)O [enalapril]
clinical efficacy in treating hypertension and congestive heart failure (in words) [1]: have clinical efficacy in treating hypertension and congestive heart failure

COc1ccc(C[C@H](NC(=O)CC(C)(C)N)C(=O)N[C@@H](Cc2cnc[nH]2)C(=O)N[C@@H](CC2CCCCC2)[C@@H](O)[C@@H](O)CC(C)C)cc1 [enalkiren]
clinical efficacy in treating hypertension and congestive heart failure (in words) [1]: have clinical efficacy in treating hypertension and congestive heart failure

CNCC(=O)N[C@@H](CCCN=C(N)N)C(=O)N[C@H](C(=O)N[C@@H](Cc1ccc(O)cc1)C(=O)N[C@H](C(=O)N[C@@H](Cc1cnc[nH]1)C(=O)N1CCC[C@H]1C(=O)N[C@@H](C)C(=O)O)C(C)C)C(C)C [saralasin, [Sar^1, Ala^8] angiotensin II]
antagonist of the actions of angiotensin II (in words) (angiotensin II): potent antagonist of the actions of angiotensin II | oral bioavailability (in words) [2]: very poor oral bioavailability | initial blood pressure change (in words) [3]: initial increase in blood pressure after intravenous administration
